Measurements: the supplement of paper PMC7806825

tested on: McpC ligand-binding domain (Salmonella Typhimurium SL1344); test: protein melting temperature (Tm) in presence of compound (degrees C); higher = more thermal stabilisation (possible ligand binding); settings: Biolog plate: PM01; compound stock concentration: 10-20 mM, 2 uL in 10 uL reaction

SMILES | protein melting temperature
OC[C@H]1O[C@H](O[C@H]2[C@H](O)[C@@H](O)[C@@H](O[C@H]3[C@H](O)[C@@H](O)[C@@H](O)O[C@@H]3CO)O[C@@H]2CO)[C@H](O)[C@@H](O)[C@@H]1O [Maltotriose] | 44
COC(=O)C(C)=O [Methylpyruvate] | 44.9
COC(=O)CCC(=O)O [Mono-Methylsuccinate] | 45
O=C(O)[C@@H](O)[C@H](O)[C@H](O)[C@@H](O)C(=O)O [Mucic acid] | 43.7
CC(=O)N[C@@H]1C(O)O[C@H](CO)[C@@H](O)[C@@H]1O (stereo partly drawn) [N-Acetyl-D-Mannosamine] | 44.8
CCC(=O)O [Propionic acid] | 44.9
CC(=O)C(=O)O [Pyruvic acid] | 44.9
O=C(O)CCC(=O)O [Succinic acid] | 44.5

same assay, conditions: Biolog plate: PM02A; compound stock concentration: 10-20 mM, 2 uL in 10 uL reaction

SMILES | protein melting temperature
CC(C)[C@H](N)C(=O)O [L-Valine] | 44.5
OC[C@@H](O)[C@@H](O[C@H]1O[C@H](CO)[C@@H](O)[C@H](O)[C@H]1O)[C@H](O)[C@@H](O)CO [Maltitol] | 44.5
OC[C@H]1O[C@@H](O[C@H]2[C@H](O)[C@@H](O)[C@H](O[C@H]3[C@H](O)[C@H](O)[C@H](O[C@@H]4[C@H](O)[C@H](O)[C@H](O)O[C@@H]4CO)O[C@@H]3CO)O[C@@H]2CO)[C@@H](O)[C@@H](O)[C@@H]1O [Mannan] | 44.8
O=C(O)[C@H](O)[C@@H](O)[C@H](O)[C@H](O)CO[C@H]1O[C@H](CO)[C@H](O)[C@H](O)[C@H]1O [Melibionic acid] | 44.7
CC(=O)N[C@H]1C(O)O[C@H](CO)[C@H](O)[C@@H]1O (stereo partly drawn) [N-Acetyl-D-Galactosamine] | 44.6
CC(=O)N[C@@H](CO)[C@@H](O)[C@H](O)[C@H](O)CO [N-Acetyl-D-Glucosaminitol] | 44.1
CC(=O)N[C@H]1[C@H]([C@H](O)[C@H](O)CO)OC(O)(C(=O)O)C[C@@H]1O (stereo partly specified) [N-Acetyl-Neuraminic acid] | 44.4
O=C(CO)[C@@H](O)[C@H](O)[C@H](O)CO[C@H]1O[C@H](CO)[C@@H](O)[C@H](O)[C@H]1O [Palatinose] | 44
O=C(O)[C@H]1O[C@@H](O)[C@H](O)[C@@H](O)[C@H]1O [Pectin] | 45
NCCCCN [Putrescine] | 43.7
O=C(O)[C@]1(O)C[C@@H](O)[C@@H](O)[C@H](O)C1 [Quinic acid] | 44.2
O=C(O)CCCCCCCCC(=O)O [Sebacic acid] | 44.8
OC[C@@]12OC[C@@H](O1)[C@@H](O)[C@@H](O)[C@@H]2O [Sedoheptulosan] | 44.3
C/C=C/C=C/C(=O)O [Sorbic acid] | 44
OC[C@H]1O[C@H](OC[C@H]2O[C@H](OC[C@H]3O[C@H](O[C@]4(CO)O[C@H](CO)[C@@H](O)[C@@H]4O)[C@H](O)[C@@H](O)[C@@H]3O)[C@H](O)[C@@H](O)[C@H]2O)[C@H](O)[C@@H](O)[C@H]1O [Stachyose] | 44.5
NC(=O)CCC(=O)O [Succinamic acid] | 43.6

same assay, conditions: Biolog plate: PM03B; compound stock concentration: 10-20 mM, 2 uL in 10 uL reaction

SMILES | protein melting temperature
N[C@@H](Cc1ccc(O)cc1)C(=O)O [L-Tyrosine] | 44.8
CC(C)[C@H](N)C(=O)O [L-Valine] | 45
CSCC[C@H](N)C(=O)N[C@@H](C)C(=O)O [Met-Ala] | 44.9
CN [Methylamine] | 45.8
CC(=O)N[C@H]1C(O)O[C@H](CO)[C@H](O)[C@@H]1O (stereo partly drawn) [N-Acetyl-D-Galactosamine] | 44.6
CC(=O)N[C@@H]1C(O)O[C@H](CO)[C@@H](O)[C@@H]1O (stereo partly drawn) [N-Acetyl-D-Mannosamine] | 45.5
CCCCCN [N-Amylamine] | 44.9
CCCCN [N-Butylamine] | 45.3
O=C(O)CC[C@@H](C(=O)O)N1C(=O)c2ccccc2C1=O [N-Phthaloyl-L-Glutamic acid] | 44.9
O=[N+]([O-])O [Nitrate] | 46
O=NO [Nitrite] | 46
O=C1NC(=O)C(=O)N1 [Parabanic acid] | 44
NCCCCN [Putrescine] | 44

same assay, conditions: Biolog plate: PM04A; compound stock concentration: 10-20 mM, 2 uL in 10 uL reaction

SMILES | protein melting temperature
CS(=O)(=O)O [Methane Sulfonic acid] | 44.4
O=P(O)(O)CP(=O)(O)O [Methylene Diphosphonic acid] | 44
CC(=O)N[C@@H](CS)C(=O)O [N-Acetyl-L-Cysteine] | 43.7
N[C@H](COP(=O)(O)O)C(=O)O [O-Phospho-D-Serine] | 43.9
N[C@H](Cc1ccc(OP(=O)(O)O)cc1)C(=O)O [O-Phospho-D-Tyrosine] | 43.7
N[C@@H](COP(=O)(O)O)C(=O)O [O-Phospho-L-Serine] | 43.9
C[C@@H](OP(=O)(O)O)[C@H](N)C(=O)O [O-Phospho-L-Threonine] | 44
N[C@@H](Cc1ccc(OP(=O)(O)O)cc1)C(=O)O [O-Phospho-L-Tyrosine] | 43.7
NCCOP(=O)(O)O [O-Phosphoryl-Ethanolamine] | 43.9
O=C(O)COP(=O)(O)O [Phospho-Glycolic acid] | 43.5
CN(CC(=O)O)C(=N)NP(=O)(O)O [Phosphocreatine] | 44.3
C=C(OP(=O)(O)O)C(=O)O [Phosphoenol Pyruvate] | 43.9
O=C(O)CP(=O)(O)O [Phosphono Acetic acid] | 44
C[N+](C)(C)CCOP(=O)(O)O [Phosphoryl Choline] | 43.7
CSC[C@H](N)C(=O)O [S-Methyl-L-Cysteine] | 43.7
NCCS(=O)(=O)O [Taurine] | 44.2
C[C@H](CCC(=O)NCCS(=O)(=O)O)[C@H]1CC[C@H]2[C@@H]3[C@H](O)C[C@@H]4C[C@H](O)CC[C@]4(C)[C@H]3C[C@H](O)[C@]12C [Taurocholic acid] | 44.2
O=S1(=O)CCCC1 [Tetramethylene Sulfone] | 44.3
O=S(=O)(O)SSS(=O)(=O)O [Tetrathionate] | 42.7

same assay, conditions: Biolog plate: PM05; compound stock concentration: 10-20 mM, 2 uL in 10 uL reaction

SMILES | protein melting temperature
N[C@@H](Cc1ccc(O)cc1)C(=O)O [L-Tyrosine] | 43.9
CC(C)[C@H](N)C(=O)O [L-Valine] | 43.5
CC1=CC(=O)c2ccccc2C1=O [Menadione] | 42.6
NC(=O)c1cccnc1 [Nicotinamide] | 43.7
O=C(O)c1cc(=O)[nH]c(=O)[nH]1 [Orotic acid] | 43
O=C(O)CC(=O)C(=O)O [Oxaloacetic acid] | 43.8
NCCCCN [Putrescine] | 44.1
Cc1ncc(CO)c(C=O)c1O [Pyridoxal] | 43.2
Cc1ncc(CO)c(CN)c1O [Pyridoxamine] | 43.9
Cc1ncc(CO)c(CO)c1O [Pyridoxine] | 43.8
O=C(O)c1cc(C(=O)O)c2c(n1)C(=O)C(=O)c1cc(C(=O)O)[nH]c1-2 [Pyrrolo-Quinoline Quinone] | 43
O=C(O)c1cccnc1C(=O)O [Quinolinic acid] | 43.8
Cc1cc2nc3c(=O)[nH]c(=O)nc-3n(C[C@H](O)[C@H](O)[C@H](O)CO)c2cc1C [Riboflavin] | 43.6
NCCCCNCCCN [Spermidine] | 41.1
NCCCNCCCCNCCCN [Spermine] | 43.8
